Tested on: terminal cancer patients
Assay: Phase I/II open label dose escalation study, glucose levels, 3 hour continuous infusion
Format: in vivo, human
Procedure: Cyclocreatine was tested in humans in a phase I/II open label dose escalation study. […] Cyclocreatine was administered at doses that ranged from 10 mg/Kg to 100 mg/Kg. The schedule of administration of cyclocreatine is described in Table 4.
Cohorts of 3 patients were administered drug at each dose level, via a 3 hour continuous infusion in one liter volume of saline. The first week patients received cyclocreatine once, the second week patients received cyclocreatine twice, the third week three times, the fourth week four times, the fifth week five times. On weeks six and seven, no drug was administered to allow the drug to wash out. On week eight, cyclocreatine was given five times. The study included a total of 23 patients (18 male, 5 female) with a median age of 71 years (range 54-85). The patients had different types of malignancies. Eligibility requirements included patients who have failed standard therapy or for whom no therapy was available, normal organ function, have recovered from prior therapies, probability of survival of greater than three months. Reasons for exclusion included: major surgery, life threatening concurrent illness and CNS metastasis. Blood samples were collected at baseline and 1 day before and after the last weekly drug administration on days 1, 7, 9, 14, 17, 21, 25, 28, 33, 40, 47, 49, 54, 61, and 69. Glucose levels were determined for these collected blood samples. […] Not all patients experienced a significant drop in glucose although the trend was there. FIGS. 14 and 15 illustrate graphically individual patients' glucose levels upon treatment with 60 mg/Kg or 80 mg/Kg cyclocreatine. Patient (A) at the 80 mg/Kg dose was diabetic and had many serious complications due to their disease. […] It should be noted that an insufficient number of readings was made shortly after drug administration. It is interesting to note that several patients who were diabetic or had higher glucose levels than normal did respond to cyclocreatine, onen example being illustrated in FIG. 16.

NC1=NCCN1CC(=O)O [cyclocreatine]
patients with significant hypoglycemia (80 mg/Kg): 2 out of 3
patients with significant hypoglycemia (100 mg/Kg): 2 out of 7
Glucose (Ave, 40 mg/Kg, Study Day 0): 125 mg/dL
Glucose (Ave, 40 mg/Kg, Study Day 1): 105 mg/dL
Glucose (Ave, 40 mg/Kg, Study Day 7): 119 mg/dL
Glucose (Ave, 40 mg/Kg, Study Day 9): 125 mg/dL
Glucose (Ave, 40 mg/Kg, Study Day 14): 129 mg/dL
Glucose (Ave, 40 mg/Kg, Study Day 17): 139 mg/dL
Glucose (Ave, 40 mg/Kg, Study Day 21): 112 mg/dL
Glucose (Ave, 40 mg/Kg, Study Day 25): 161 mg/dL
Glucose (Ave, 40 mg/Kg, Study Day 28): 122 mg/dL
Glucose (Ave, 40 mg/Kg, Study Day 33): 149 mg/dL
Glucose (Ave, 40 mg/Kg, Study Day 40): 104 mg/dL
Glucose (Ave, 40 mg/Kg, Study Day 47): 99 mg/dL
Glucose (Ave, 40 mg/Kg, Study Day 49): 128 mg/dL
Glucose (Ave, 40 mg/Kg, Study Day 54): 132 mg/dL
Glucose (Ave, 40 mg/Kg, Study Day 61): 105 mg/dL
Glucose (Ave, 40 mg/Kg, Study Day 69): 119 mg/dL
Glucose (Ave, 60 mg/Kg, Study Day 7): 37 mg/dL
Glucose (Patient 2, 7, 40 mg/Kg, Study Day 0): 115 mg/dL
Glucose (Patient 2, 7, 40 mg/Kg, Study Day 1): 95 mg/dL
Glucose (Patient 2, 7, 40 mg/Kg, Study Day 7): 153 mg/dL
Glucose (Patient 2, 7, 40 mg/Kg, Study Day 9): 123 mg/dL
Glucose (Patient 2, 7, 40 mg/Kg, Study Day 14): 102 mg/dL
Glucose (Patient 2, 7, 40 mg/Kg, Study Day 17): 117 mg/dL
Glucose (Patient 2, 7, 40 mg/Kg, Study Day 21): 104 mg/dL
Glucose (Patient 2, 7, 40 mg/Kg, Study Day 25): 122 mg/dL
Glucose (Patient 2, 7, 40 mg/Kg, Study Day 28): 154 mg/dL
Glucose (Patient 2, 8, 40 mg/Kg, Study Day 0): 222 mg/dL
Glucose (Patient 2, 8, 40 mg/Kg, Study Day 1): 116 mg/dL
Glucose (Patient 2, 8, 40 mg/Kg, Study Day 9): 148 mg/dL
Glucose (Patient 2, 8, 40 mg/Kg, Study Day 14): 184 mg/dL
Glucose (Patient 2, 8, 40 mg/Kg, Study Day 17): 251 mg/dL
Glucose (Patient 2, 8, 40 mg/Kg, Study Day 25): 278 mg/dL
Glucose (Patient 2, 8, 40 mg/Kg, Study Day 33): 244 mg/dL
Glucose (Patient 2, 8, 40 mg/Kg, Study Day 40): 139 mg/dL
Glucose (Patient 2, 8, 40 mg/Kg, Study Day 49): 129 mg/dL
Glucose (Patient 2, 8, 40 mg/Kg, Study Day 54): 195 mg/dL
Glucose (Patient 2, 8, 40 mg/Kg, Study Day 69): 205 mg/dL
Glucose (Patient 2, 9, 40 mg/Kg, Study Day 0): 98 mg/dL
Glucose (Patient 2, 9, 40 mg/Kg, Study Day 1): 87 mg/dL
Glucose (Patient 2, 9, 40 mg/Kg, Study Day 7): 117 mg/dL
Glucose (Patient 2, 9, 40 mg/Kg, Study Day 9): 148 mg/dL
Glucose (Patient 2, 9, 40 mg/Kg, Study Day 14): 126 mg/dL
Glucose (Patient 2, 9, 40 mg/Kg, Study Day 17): 139 mg/dL
Glucose (Patient 2, 9, 40 mg/Kg, Study Day 21): 90 mg/dL
Glucose (Patient 2, 9, 40 mg/Kg, Study Day 25): 114 mg/dL
Glucose (Patient 2, 9, 40 mg/Kg, Study Day 28): 87 mg/dL
Glucose (Patient 2, 9, 40 mg/Kg, Study Day 33): 121 mg/dL
Glucose (Patient 2, 9, 40 mg/Kg, Study Day 40): 92 mg/dL
Glucose (Patient 2, 9, 40 mg/Kg, Study Day 47): 105 mg/dL
Glucose (Patient 2, 9, 40 mg/Kg, Study Day 49): 132 mg/dL
Glucose (Patient 2, 9, 40 mg/Kg, Study Day 54): 105 mg/dL
Glucose (Patient 2, 9, 40 mg/Kg, Study Day 61): 104 mg/dL
Glucose (Patient 2, 9, 40 mg/Kg, Study Day 69): 92 mg/dL
Glucose (Patient 8, 40 mg/Kg, Study Day 0): 94 mg/dL
Glucose (Patient 8, 40 mg/Kg, Study Day 1): 114 mg/dL
Glucose (Patient 8, 40 mg/Kg, Study Day 7): 96 mg/dL
Glucose (Patient 8, 40 mg/Kg, Study Day 9): 115 mg/dL
Glucose (Patient 8, 40 mg/Kg, Study Day 14): 87 mg/dL
Glucose (Patient 8, 40 mg/Kg, Study Day 17): 91 mg/dL
Glucose (Patient 8, 40 mg/Kg, Study Day 21): 103 mg/dL
Glucose (Patient 8, 40 mg/Kg, Study Day 25): 96 mg/dL
Glucose (Patient 8, 40 mg/Kg, Study Day 28): 125 mg/dL
Glucose (Patient 8, 40 mg/Kg, Study Day 33): 122 mg/dL
Glucose (Patient 8, 40 mg/Kg, Study Day 40): 67 mg/dL
Glucose (Patient 8, 40 mg/Kg, Study Day 47): 116 mg/dL
Glucose (Patient 8, 40 mg/Kg, Study Day 49): 122 mg/dL
Glucose (Patient 8, 40 mg/Kg, Study Day 54): 136 mg/dL
Glucose (Patient 8, 40 mg/Kg, Study Day 61): 102 mg/dL
Glucose (Patient 8, 40 mg/Kg, Study Day 69): 135 mg/dL
Glucose (Patient 9, 40 mg/Kg, Study Day 0): 118 mg/dL
Glucose (Patient 9, 40 mg/Kg, Study Day 1): 114 mg/dL
Glucose (Patient 9, 40 mg/Kg, Study Day 7): 73 mg/dL
Glucose (Patient 9, 40 mg/Kg, Study Day 9): 130 mg/dL
Glucose (Patient 9, 40 mg/Kg, Study Day 14): 151 mg/dL
Glucose (Patient 9, 40 mg/Kg, Study Day 17): 145 mg/dL
Glucose (Patient 9, 40 mg/Kg, Study Day 21): 156 mg/dL
Glucose (Patient 9, 40 mg/Kg, Study Day 25): 210 mg/dL
Glucose (Patient 9, 40 mg/Kg, Study Day 28): 151 mg/dL
Glucose (Patient 9, 40 mg/Kg, Study Day 33): 109 mg/dL
Glucose (Patient 9, 40 mg/Kg, Study Day 40): 128 mg/dL
Glucose (Patient 9, 40 mg/Kg, Study Day 47): 75 mg/dL
Glucose (Patient 9, 40 mg/Kg, Study Day 54): 145 mg/dL
Glucose (Patient 9, 40 mg/Kg, Study Day 61): 121 mg/dL
Glucose (Patient 9, 40 mg/Kg, Study Day 69): 89 mg/dL
Glucose (Patient 10, 40 mg/Kg, Study Day 0): 100 mg/dL
Glucose (Patient 10, 40 mg/Kg, Study Day 7): 156 mg/dL
Glucose (Patient 10, 40 mg/Kg, Study Day 9): 84 mg/dL
Glucose (Patient 10, 40 mg/Kg, Study Day 14): 123 mg/dL
Glucose (Patient 10, 40 mg/Kg, Study Day 17): 93 mg/dL
Glucose (Patient 10, 40 mg/Kg, Study Day 21): 106 mg/dL
Glucose (Patient 10, 40 mg/Kg, Study Day 25): 143 mg/dL
Glucose (Patient 10, 40 mg/Kg, Study Day 28): 91 mg/dL
Glucose (Patient 10, 40 mg/Kg, Study Day 40): 94 mg/dL
Glucose (Patient 10, 40 mg/Kg, Study Day 47): 100 mg/dL
Glucose (Patient 10, 40 mg/Kg, Study Day 54): 79 mg/dL
Glucose (Patient 10, 40 mg/Kg, Study Day 61): 92 mg/dL
Glucose (Patient 10, 40 mg/Kg, Study Day 69): 74 mg/dL
Glucose (Patient 11, 60 mg/Kg, Study Day 7): 141 mg/dL
Glucose (Patient 12, 60 mg/Kg, Study Day 7): 72 mg/dL
Glucose (Patient 13, 60 mg/Kg, Study Day 7): 48 mg/dL
glucose response (Patient (A), diabetic, 80 mg/Kg): did not seem to respond well
clinical observation (highest tested drug concentrations (80 and 100 mg/Kg)): became lethargic and hypoglycemic and required immediate intervention to revert glucose levels
Glucose Levels (lower tested drug concentrations): trend towards a drop in glucose levels shortly after drug administration
glucose response (several patients who were diabetic or had higher glucose levels than normal): did respond

Reference: patent publication US20050256134A1, “Use of creatine analogues and creatine kinase modulators for the prevention and treatment of glucose metabolic disorders” (AVICENA GROUP, INC., priority 1995, published 2005)
